The values below come from PubChem BioAssay AID1053148 (Broad Institute, 2014).

The assay has as its system HepG2 ERK1/2 phosphorylation, Western blot imaging. The assay can be described thus: ERK1/2 phosphorylation increase by Trib1 inducers, late-stage follow-up, mechanism study for Trib1 inducer project, cell-based, HepG2, Western blot imaging, cherry-pick (AID 1053148). The following applies: stronger effect = higher value.

Take `CN1C(=O)c2cc(NC(=O)c3ccc(C(F)(F)F)cc3)ccc2OC[C@@H]2O[C@H](CC(=O)NC3Cc4ccccc4C3)CC[C@@H]21`: the fold induction x10 was 2.
